Test results published in publication PMC7734281, “Functionalized Oxoindolin Hydrazine Carbothioamide Derivatives as Highly Potent Inhibitors of Nucleoside Triphosphate Diphosphohydrolases” (Frontiers in Pharmacology, 2020).

Columns and labels:
h-NTPDase3 = molecular target: T1, h-NTPDase3 (Homo sapiens, UniProt O75355); experiment: h-NTPDase3 inhibition, malachite green assay; assay type: biochemical; conditions: for inhibition at 100 µM / Ki / IC50: human NTPDase3; for inhibition at 100 µM: compound 100 µM; for Mode of inhibition of h-NTPDase3: Lineweaver-Burk plot; for IC50: ATP 100 µM substrate, mean ± SEM of three independent experiments
T1 construct: made in house; host or cells: COS-7 cells, transient transfection; crude protein extract after sonication
T1 sequence (O75355 1-529): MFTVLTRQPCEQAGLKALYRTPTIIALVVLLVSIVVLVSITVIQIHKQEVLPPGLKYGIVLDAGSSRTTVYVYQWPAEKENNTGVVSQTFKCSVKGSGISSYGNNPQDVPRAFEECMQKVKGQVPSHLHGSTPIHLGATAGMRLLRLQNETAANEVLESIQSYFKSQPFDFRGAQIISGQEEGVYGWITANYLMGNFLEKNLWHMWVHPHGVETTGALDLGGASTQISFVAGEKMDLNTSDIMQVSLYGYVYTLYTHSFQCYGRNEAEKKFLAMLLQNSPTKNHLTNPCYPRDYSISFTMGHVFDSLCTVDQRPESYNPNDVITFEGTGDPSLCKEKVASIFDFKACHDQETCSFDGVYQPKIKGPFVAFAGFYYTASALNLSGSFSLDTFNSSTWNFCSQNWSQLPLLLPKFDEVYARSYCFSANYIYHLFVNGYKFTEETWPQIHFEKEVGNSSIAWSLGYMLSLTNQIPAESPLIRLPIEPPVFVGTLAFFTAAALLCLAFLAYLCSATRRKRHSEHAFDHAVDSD
Description: (§1) COS-7 cells were transfected with plasmids expressing human or mouse NTPDases1, -2, -3, and -8 as previously described ([Levesque et al., 2007]; [Lecka et al., 2014]) Briefly, the confluent cells were transferred to Dulbecco’s Modified Eagle’s Medium containing no fetal bovine serum. Then, these cells were incubated with plasmid DNA (6 µg) and Lipofectamine reagent (24 µl) at 37°C. After 5 h, transfection was terminated with the addition of an equal volume of DMEM/F-12 (supplemented with 20% FBS) and cells were collected by harvesting after 40–72 h.
(§2) To prepare protein extracts, transfected COS-7 cells were washed three times with tris-saline buffer while temperature was maintained at 4°C. Then cells were scraped and resuspended in harvesting buffer containing 95 mM NaCl, 45 mM tris and 0.1 mM phenylmethylsulfonyl fluoride (pH 7.5). Cells were again washed twice by centrifugation for 5 min at 300 × g at 4°C and then resuspended in harvesting buffer (supplemented with 10 μg ml aprotinin). Following sonication, cellular debris was isolated by 10 min centrifugation at 300 g at 4°C. Subsequently, supernatant was removed very carefully and protein concentration was determined by using Bradford microplate assay while using the bovine serum albumin as a standard ([Bradford, 1976]).
(§3) The inhibitory effects of synthesized compounds on h-NTPDase1, -2, -3, and -8 were determined as described previously, although with slight modifications ([Martín-Satué et al., 2009]). Assay was conducted in a reaction medium containing 50 mM tris-HCl and 5 mM CaCl2 (pH 7.4). All the test compounds were dissolved in dimethyl sulfoxide (DMSO, 10%) and initially screened at a concentration of 100 µM. A reaction mixture containing 55 µl of assay buffer, 10 µl of test compound solution and 10 µl of h-NTPDase1 (58 ng/well) or h-NTPDase2 (79 ng/well) or h-NTPDase3 (163 ng/well) or h-NTPDase8 (66 ng/well) was incubated at 37°C for 10 min. Following the incubation, a 10 µl solution of adenosine triphosphate (ATP, 100 µm) was added as substrate and reaction mixture was again incubated for 15 min at 37°C. The reaction was stopped by adding malachite green reagent (15 µl) and placed at room temperature for 4 to 6 min. Finally, absorbance was measured at 630 nm by using Omega FLUOstar microplate reader (BMG Labtech, Ortenberg, Germany) and % inhibitions were calculated. For compounds showing more than 50% inhibition of any isozyme, dose response curves were generated and their IC50 values were determined. Three separate enzyme inhibition assays were carried out in triplicate and dose-response curve were generated by using PRISM 5.0 (GraphPad, San Diego, United States).

h-NTPDase2 = molecular target: T2, h-NTPDase2 (Homo sapiens, UniProt Q9Y5L3); experiment: h-NTPDase2 inhibition, malachite green assay; assay type: biochemical; conditions: for inhibition at 100 µM: compound 100 µM; for IC50: ATP 100 µM substrate, mean ± SEM of three independent experiments
T2 construct: made in house; host or cells: COS-7 cells, transient transfection; crude protein extract after sonication
T2 sequence (Q9Y5L3 1-495): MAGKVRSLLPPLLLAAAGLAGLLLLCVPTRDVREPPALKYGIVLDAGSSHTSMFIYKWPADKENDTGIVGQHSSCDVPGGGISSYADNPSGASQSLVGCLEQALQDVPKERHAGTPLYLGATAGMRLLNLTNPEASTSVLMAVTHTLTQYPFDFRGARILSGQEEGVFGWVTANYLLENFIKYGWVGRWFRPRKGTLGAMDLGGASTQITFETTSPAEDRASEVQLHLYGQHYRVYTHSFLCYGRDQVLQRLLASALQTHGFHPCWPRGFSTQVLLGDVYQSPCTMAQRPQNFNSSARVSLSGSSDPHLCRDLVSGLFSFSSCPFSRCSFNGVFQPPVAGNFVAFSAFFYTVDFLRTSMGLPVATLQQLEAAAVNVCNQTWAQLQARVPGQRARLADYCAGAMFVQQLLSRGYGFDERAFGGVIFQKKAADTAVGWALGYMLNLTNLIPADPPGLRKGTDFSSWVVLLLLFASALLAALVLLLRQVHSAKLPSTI
Description: as §1, §2, §3

inhibition at 100 µM (h-NTPDase3) [%]	inhibition at 100 µM (h-NTPDase2) [%]	melting point [°C]	further results	Structure (SMILES)
20	24			O=C1Nc2ccccc2/C1=N/NC(=S)Nc1ccccc1 [8a, (Z)-2-(2-oxoindolin-3-ylidene)-N-phenylhydrazine-1-carbothioamide]
26	17			Cc1ccc(NC(=S)N/N=C2\C(=O)Nc3ccccc32)cc1 [8h, (Z)-2-(2-oxoindolin-3-ylidene)-N-(p-tolyl)hydrazine-1-carbothioamide]
19			Ki (h-NTPDase2): 0.07 µM; IC50 (h-NTPDase2): 0.16 ± 0.01 µM	COc1ccc(NC(=S)NNC2=c3ccccc3=NC2=O)cc1 [8k, (Z)-N-(4-methoxyphenyl)-2-(2-oxoindolin-3-ylidene)hydrazine-1-carbothioamide]
34		245 to 248	Ki (h-NTPDase2): 0.04 µM; IC50 (h-NTPDase2): 0.11 ± 0.08 µM	COc1ccc(OC)c(NC(=S)N/N=C2\C(=O)Nc3ccccc32)c1 [8j, (Z)-N-(2,5-dimethoxyphenyl)-2-(2-oxoindolin-3-ylidene)hydrazine-1-carbothioamide]
17	29	235 to 236		O=C1Nc2ccccc2/C1=N/NC(=S)Nc1cccc(Cl)c1 [8g, (Z)-N-(3-chlorophenyl)-2-(2-oxoindolin-3-ylidene)hydrazine-1-carbothioamide]
	< 50	220 to 224		COc1cccc(NC(=S)N/N=C2\C(=O)Nc3ccccc32)c1 [8e, (Z)-N-(3-methoxyphenyl)-2-(2-oxoindolin-3-ylidene)hydrazine-1-carbothioamide]
	42	190 to 194	Mode of inhibition of h-NTPDase3 (h-NTPDase3): non-competitive; Ki (h-NTPDase3): 0.16 µM; IC50 (h-NTPDase3): 0.38 ± 0.03 µM	CCNC(=S)N/N=C1\C(=O)Nc2ccccc21 [8m, (Z)-N-ethyl-2-(2-oxoindolin-3-ylidene)hydrazine-1-carbothioamide]
			Ki (h-NTPDase3): 1.85 µM; IC50 (h-NTPDase3): 4.31 ± 0.41 µM; Ki (h-NTPDase2): 9.92 µM; IC50 (h-NTPDase2): 24.1 ± 3.01 µM	Cc1ccc(C(=O)Nc2ccc(S(=O)(=O)O)c3cc(S(=O)(=O)O)cc(S(=O)(=O)O)c23)cc1NC(=O)c1cccc(NC(=O)Nc2cccc(C(=O)Nc3cc(C(=O)Nc4ccc(S(=O)(=O)O)c5cc(S(=O)(=O)O)cc(S(=O)(=O)O)c45)ccc3C)c2)c1 [Suramin, reference compound]
46	48	255 to 256		O=C1Nc2ccccc2/C1=N/NC(=S)Nc1ccc(F)cc1 [8d, (Z)-N-(4-fluorophenyl)-2-(2-oxoindolin-3-ylidene)hydrazine-1-carbothioamide]
	< 50	243 to 244		O=C1Nc2ccccc2/C1=N/NC(=S)Nc1c(F)cccc1F [8l, (Z)-N-(2,6-difluorophenyl)-2-(2-oxoindolin-3-ylidene)hydrazine-1-carbothioamide]
		271 to 272		O=C1Nc2ccccc2/C1=N/NC(=S)Nc1ccc([N+](=O)[O-])cc1 [8b, (Z)-N-(4-nitrophenyl)-2-(2-oxoindolin-3-ylidene)hydrazine-1-carbothioamide]
25		250 to 252	Ki (h-NTPDase2): 0.17 µM; IC50 (h-NTPDase2): 0.41 ± 0.03 µM	Cc1cccc(C)c1NC(=S)N/N=C1\C(=O)Nc2ccccc21 [8i, (Z)-N-(2,6-dimethylphenyl)-2-(2-oxoindolin-3-ylidene)hydrazine-1-carbothioamide]
	46	240 to 244	Times more active than standard inhibitor suramin (comparison of IC50s), h-NTPDase3 (h-NTPDase3; IC50 ratio versus suramin): 22 times; Mode of inhibition of h-NTPDase3 (h-NTPDase3): competitive; Ki (h-NTPDase3): 0.08 µM; IC50 (h-NTPDase3): 0.19 ± 0.02 µM	O=C1Nc2ccccc2/C1=N/NC(=S)Nc1ccc(Cl)cc1 [8c, (Z)-N-(4-chlorophenyl)-2-(2-oxoindolin-3-ylidene)hydrazine-1-carbothioamide]
	< 50	206 to 208		O=C1Nc2ccccc2/C1=N/NC(=S)NCc1ccccc1 [8f, (Z)-N-benzyl-2-(2-oxoindolin-3-ylidene)hydrazine-1-carbothioamide]
